We go through 22 compounds from US11053241B2, “TYK2 inhibitors and uses thereof” (Nimbus Lakshmi, Inc., priority 2018, dated 2021).

Chain of human TYK2 (JH2domain-pseudokinase) (P29597 556-888): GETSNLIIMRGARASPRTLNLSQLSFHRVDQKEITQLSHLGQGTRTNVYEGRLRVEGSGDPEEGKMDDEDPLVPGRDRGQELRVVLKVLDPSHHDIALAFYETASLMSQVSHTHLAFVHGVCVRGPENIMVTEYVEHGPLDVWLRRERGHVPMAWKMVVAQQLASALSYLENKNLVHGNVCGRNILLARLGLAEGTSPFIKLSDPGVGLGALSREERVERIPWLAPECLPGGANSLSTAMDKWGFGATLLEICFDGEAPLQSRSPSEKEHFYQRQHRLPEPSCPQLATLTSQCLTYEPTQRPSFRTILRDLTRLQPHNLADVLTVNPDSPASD

This test addresses human TYK2 (JH2domain-pseudokinase) (Homo sapiens (Human), UniProt P29597). Put plainly: TYK2 JH2 Domain Binding Assay (KINOMEscan). To be noted: 11-point 3-fold dilution, top concentration 30,000 nM, duplicate. How it is done:
Binding constants for compounds of the present invention against the JH2 domain were determined by the following protocol for a KINOMEscan® assay (DiscoveRx). A fusion protein of a partial length construct of human TYK2 (JH2domain-pseudokinase) (amino acids G556 to D888 based on reference sequence NP_003322.3) and the DNA binding domain of NFkB was expressed in transiently transfected HEK293 cells. From these HEK 293 cells, extracts were prepared in M-PER extraction buffer (Pierce) in the presence of Protease Inhibitor Cocktail Complete (Roche) and Phosphatase Inhibitor Cocktail Set II (Merck) per manufacturers' instructions. The TYK2(JH2domain-pseudokinase) fusion protein was labeled with a chimeric double-stranded DNA tag containing the NFkB binding site (5′-GGGAATTCCC-3′) fused to an amplicon for qPCR readout, which was added directly to the expression extract (the final concentration of DNA-tag in the binding reaction is 0.1 nM).
Streptavidin-coated magnetic beads (Dynal M280) were treated with a biotinylated small molecule ligand for 30 minutes at room temperature to generate affinity resins for the binding assays. The liganded beads were blocked with excess biotin and washed with blocking buffer (SeaBlock (Pierce), 1% BSA, 0.05% Tween 20, 1 mM DTT) to remove unbound ligand and to reduce nonspecific binding.
The binding reaction was assembled by combining 16 μl of DNA-tagged kinase extract, 3.8 μl liganded affinity beads, and 0.18 μl test compound (PBS/0.05% Tween 20/10 mM DTT/0.1% BSA/2 μg/ml sonicated salmon sperm DNA). Extracts were used directly in binding assays without any enzyme purification steps at a ≥10,000-fold overall stock dilution (final DNA-tagged enzyme concentration <0.1 nM). Extracts were loaded with DNA-tag and diluted into the binding reaction in a two step process. First extracts were diluted 1:100 in 1× binding buffer (PBS/0.05% Tween 20/10 mM DTT/0.1% BSA/2 μg/ml sonicated salmon sperm DNA) containing 10 nM DNA-tag. This dilution was allowed to equilibrate at room temperature for 15 minutes and then subsequently diluted 1:100 in 1× binding buffer. All reactions were performed in polypropylene 384-well plates. Each was a final volume of 0.02 mL. Assays were incubated with shaking for 1 hour at room temperature. Then the beads were pelleted and washed with wash buffer (1×PBS, 0.05% Tween 20) to remove displaced kinase and test compound. The washed based were re-suspended in elution buffer (1×PBS, 0.05% Tween 20, 0.5 μM non-biotinylated affinity ligand) and incubated at room temperature with shaking for 30 minutes. The kinase concentration in the eluates was measured by qPCR. qPCR reactions were assembled by adding 2.5 μL of kinase eluate to 7.5 μL of qPCR master mix containing 0.15 μM amplicon primers and 0.15 μM amplicon probe. The qPCR protocol consisted of a 10 minute hot start at 95° C., followed by 35 cycles of 95° C. for 15 seconds, 60° C. for 1 minute.
Test compounds were prepared as 111× stocks in 100% DMSO. Kd values were determined using an 11-point 3-fold compound dilution series with three DMSO control points. All compounds for Kd measurements are distributed by acoustic transfer (non-contact dispensing) in 100% DMSO. The compounds were then diluted directly into the assays such that the final concentration of DMSO was 0.9%. The Kd values were determined using a compound top concentration of 30,000 nM. Kd measurements were performed in duplicate.
Binding constants (Kds) were calculated with a standard dose-response curve using the Hill equation: […]
The Hill Slope was set to −1. Curves were fitted using a non-linear least square fit with the Levenberg-Marquardt algorithm (Levenberg, K., A method for the solution of certain non-linear problems in least squares, Q. Appl. Math. 2, 164-168 (1944)).
What is called Kd is the free concentration of one partner at which half of the binding sites on the other are occupied at equilibrium, for simple one-to-one binding. The compound `CNC(=O)c1cnc(NC(=O)C2CC2)c2[nH]c(-c3cccc(C4=NC(C)(C)CO4)c3F)cc12` [Compound I-87, 7-(cyclopropanecarboxamido)-2-(3-(4,4-dimethyl-4,5-dihydrooxazol-2-yl)-2-fluorophenyl)-N-methyl-1H-pyrrolo[2,3-c]pyridine-4-carboxamide] returned a Kd of under 0.2 nM.

`CNC(=O)c1cnc(NC(=O)C2CC2)c2[nH]c(-c3ccccc3N3CCC(O)CC3)cc12` [Compound I-46, 7-(cyclopropanecarboxamido)-2-(2-(4-hydroxypiperidin-1-yl)phenyl)-N-methyl-1H-pyrrolo[2,3-c]pyridine-4-carboxamide] had a Kd of 0.2 to 1 nM. Regarding `CNC(=O)c1cnc(Nc2ccn(C)n2)c2[nH]c(-c3cccc(-c4cnn(C)c4)c3F)cc12` [Compound I-97, 2-(2-fluoro-3-(1-methyl-1H-pyrazol-4-yl)phenyl)-N-methyl-7-((1-methyl-1H-pyrazol-3-yl)amino)-1H-pyrrolo[2,3-c]pyridine-4-carboxamide], the Kd was under 0.2 nM. On to `CNC(=O)c1cnc(NC(=O)C2CC2)c2[nH]c(-c3c(F)cc(-c4nccn4C)cc3F)cc12` [Compound I-77, 7-(cyclopropanecarboxamido)-2-(2,6-difluoro-4-(1-methyl-1H-imidazol-2-yl)phenyl)-N-methyl-1H-pyrrolo[2,3-c]pyridine-4-carboxamide], for which the Kd was under 0.2 nM. `CNC(=O)c1cnc(NC(=O)C2CC2)c2[nH]c(-c3cccc(-c4cn5c(n4)OCCC5)c3F)cc12` [Compound I-76, 7-(cyclopropanecarboxamido)-2-(3-(6,7-dihydro-5H-imidazo[2,1-b][1,3]oxazin-2-yl)-2-fluorophenyl)-N-methyl-1H-pyrrolo[2,3-c]pyridine-4-carboxamide]: the Kd was under 0.2 nM. For `CNC(=O)c1cnc(NC(=O)C2CC2)c2[nH]c(-c3ccc(-c4ccn(C)n4)cc3F)cc12` [Compound I-101] the value was 0.2 to 1 nM; for `CNC(=O)c1cnc(NC(=O)C2CC2)c2[nH]c(-c3cccc(-c4cn5c(n4)CCC5)c3F)cc12` [Compound I-69, 7-(cyclopropanecarboxamido)-2-(3-(6,7-dihydro-5H-pyrrolo[1,2-a]imidazol-2-yl)-2-fluorophenyl)-N-methyl-1H-pyrrolo[2,3-c]pyridine-4-carboxamide], under 0.2 nM; for `CNC(=O)c1cnc(NC(=O)C2CC2)c2[nH]c(-c3ccc(-c4nccs4)cc3OC)cc12` [Compound I-60, 7-(cyclopropanecarboxamido)-2-(2-methoxy-4-(thiazol-2-yl)phenyl)-N-methyl-1H-pyrrolo[2,3-c]pyridine-4-carboxamide], under 0.2 nM. For `CNC(=O)c1cnc(NC(=O)C2CC2)c2[nH]c(-c3cccc(-c4nnn(C)n4)c3)cc12` [Compound I-50, 7-(cyclopropanecarboxamido)-N-methyl-2-(3-(2-methyl-2H-tetrazol-5-yl)phenyl)-1H-pyrrolo[2,3-c]pyridine-4-carboxamide] the value was 0.2 to 1 nM; for `CNC(=O)c1cnc(Nc2ccn(C)n2)c2[nH]c(-c3cccc(-c4cn5c(n4)COCC5)c3F)cc12` [Compound I-100, 2-(3-(5,6-dihydro-8H-imidazo[2,1-c][1,4]oxazin-2-yl)-2-fluorophenyl)-N-methyl-7-((1-methyl-1H-pyrazol-3-yl)amino)-1H-pyrrolo[2,3-c]pyridine-4-carboxamide], under 0.2 nM; for `CNC(=O)c1cnc(NC(=O)C2CC2)c2[nH]c(-c3cccc(-n4cnc(C)n4)c3F)cc12` [Compound I-47, 7-(cyclopropanecarboxamido)-2-(2-fluoro-3-(3-methyl-1H-1,2,4-triazol-1-yl)phenyl)-N-methyl-1H-pyrrolo[2,3-c]pyridine-4-carboxamide], under 0.2 nM. The same measure for `CNC(=O)c1cnc(NC(=O)C2CC2)c2[nH]c(-c3cccc(OC4CCOCC4)c3F)cc12` [Compound I-85, 7-(cyclopropanecarboxamido)-2-(2-fluoro-3-((tetrahydro-2H-pyran-4-yl)oxy)phenyl)-N-methyl-1H-pyrrolo[2,3-c]pyridine-4-carboxamide]: 0.2 to 1 nM. In turn, `CNC(=O)c1cnc(NC(=O)C2CC2)c2[nH]c(-c3cccc(-n4nccn4)c3F)cc12` [Compound I-63, 7-(cyclopropanecarboxamido)-2-(2-fluoro-3-(2H-1,2,3-triazol-2-yl)phenyl)-N-methyl-1H-pyrrolo[2,3-c]pyridine-4-carboxamide] registered a Kd of 0.2 to 1 nM.

As to `CNC(=O)c1cnc(NC(=O)C2CC2)c2[nH]c(-c3cccc(-c4cnc(C)o4)c3F)cc12` [Compound I-81, 7-(cyclopropanecarboxamido)-2-(2-fluoro-3-(2-methyloxazol-5-yl)phenyl)-N-methyl-1H-pyrrolo[2,3-c]pyridine-4-carboxamide], the Kd was under 0.2 nM. For `CNC(=O)c1cnc(NC(=O)C2CC2)c2[nH]c(-c3ccc(-c4nncn4C)cc3F)cc12` [Compound I-62, 7-(cyclopropanecarboxamido)-2-(2-fluoro-4-(4-methyl-4H-1,2,4-triazol-3-yl)phenyl)-N-methyl-1H-pyrrolo[2,3-c]pyridine-4-carboxamide], the Kd was under 0.2 nM. In turn, `CNC(=O)c1cnc(NC(=O)C2CC2)c2[nH]c(-c3ccc(-c4cnccn4)cc3F)cc12` [Compound I-66, 7-(cyclopropanecarboxamido)-2-(2-fluoro-4-(pyrazin-2-yl)phenyl)-N-methyl-1H-pyrrolo[2,3-c]pyridine-4-carboxamide] had a Kd of under 0.2 nM. For `CNC(=O)c1cnc(NC(=O)C2CC2)c2[nH]c(-c3c(F)cc(-n4nccn4)cc3OC3CC3)cc12` [Compound I-82, 7-(cyclopropanecarboxamido)-2-(2-cyclopropoxy-6-fluoro-4-(2H-1,2,3-triazol-2-yl)phenyl)-N-methyl-1H-pyrrolo[2,3-c]pyridine-4-carboxamide], the Kd was over 10 nM. The compound `CNC(=O)c1cnc(NC(=O)C2CC2)c2[nH]c(-c3ccc4nc(C)n(C)c4c3F)cc12` [Compound I-92, 7-(cyclopropanecarboxamido)-2-(7-fluoro-1,2-dimethyl-1H-benzo[d]imidazol-6-yl)-N-methyl-1H-pyrrolo[2,3-c]pyridine-4-carboxamide] had a Kd of under 0.2 nM. For `CNC(=O)c1cnc(NC(=O)C2CC2)c2[nH]c(-c3c(F)cc(-c4nccn4C)cc3N3CC[C@@H](OC)C3)cc12` [Compound I-90, (R)-7-(cyclopropanecarboxamido)-2-(2-fluoro-6-(3-methoxypyrrolidin-1-yl)-4-(1-methyl-1H-imidazol-2-yl)phenyl)-N-methyl-1H-pyrrolo[2,3-c]pyridine-4-carboxamide] the value was under 0.2 nM; for `CNC(=O)c1cnc(NC(=O)C2CC2)c2[nH]c(-c3cccc(-c4cn(C)c(C)n4)c3F)cc12` [Compound I-67], under 0.2 nM.

In the case of `CNC(=O)c1cnc(NC(=O)C2CC2)c2[nH]c(-c3ccc(OC[C@@H]4CCCO4)cc3F)cc12` [Compound I-88, (S)-7-(cyclopropanecarboxamido)-2-(2-fluoro-4-((tetrahydrofuran-2-yl)methoxy)phenyl)-N-methyl-1H-pyrrolo[2,3-c]pyridine-4-carboxamide], the dissociation constant Kd was under 0.2 nM. For `CNC(=O)c1cnc(NC(=O)C2CC2)c2[nH]c(-c3cccc([C@H]4C[C@@H](OC)C4)c3F)cc12` [Compound I-91, 7-(cyclopropanecarboxamido)-2-(2-fluoro-3-((1s,3s)-3-methoxycyclobutyl)phenyl)-N-methyl-1H-pyrrolo[2,3-c]pyridine-4-carboxamide], the Kd was under 0.2 nM.
